# Experimental data as given in the supplement of paper PMC10307832.
# Tests used:
# Test in all cases: relative viability (nuclei count vs DMSO), 5 days (fraction); higher = more cells survive
# [1] = tested on: NCI-H727
# How it was run: (§1)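 Relative viability divides the nuclei count in treated wells by that in vehicle wells. Lung cancer cell lines were seeded in 1536-well plates, dosed by pin tool the next day, and fixed and stained after 5 days in one step with final 0.05% Triton X-100, 1% formaldehyde and 1 ug/ml Hoechst. Dosing was a single drug or a fixed anchor-drug dose plus five library-drug doses (not always all listed) in √10 steps, and values are medians of duplicate plates imaged at 4×.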
# [2] = tested on: PC-14
# How it was run: as §1
# [3] = tested on: NCI-H1355
# How it was run: as §1
# [4] = tested on: NCI-H1563
# How it was run: as §1
# [5] = tested on: LXF-289
# How it was run: as §1
# [6] = tested on: NCI-H2170
# How it was run: as §1
# [7] = tested on: NCI-H661
# How it was run: as §1
# [8] = tested on: NCI-H596
# How it was run: as §1
# [9] = tested on: NCI-H650
# How it was run: as §1
# [10] = tested on: RERF-LC-KJ
# How it was run: as §1
# [11] = tested on: NCI-H1651
# How it was run: as §1
# [12] = tested on: NCI-H1755
# How it was run: as §1
# [13] = tested on: NCI-H460
# How it was run: as §1
# [14] = tested on: SK-MES-1
# How it was run: as §1
# [15] = tested on: NCI-H2347
# How it was run: as §1
# [16] = tested on: NCI-H3122
# How it was run: as §1
# [17] = tested on: NCI-H520
# How it was run: as §1
# [18] = tested on: NCI-H1915
# How it was run: as §1
# [19] = tested on: NCI-H1792
# How it was run: as §1
# [20] = tested on: NCI-H322M
# How it was run: as §1
smiles,measurement,setting,value
O=C(O)c1ccc(-c2c[nH]c3ncc(-c4ccccc4)cc23)cc1C1CCCC1 + CS(=O)(=O)CCNCc1ccc(-c2ccc3ncnc(Nc4ccc(OCc5cccc(F)c5)c(Cl)c4)c3c2)o1 [Lapatinib] (partner 2 µM),relative viability,[1]; first compound 0.04 µM,0.955
same,relative viability,[1]; first compound 0.1265 µM,1
same,relative viability,[1]; first compound 0.4 µM,0.876
same,relative viability,[1]; first compound 1.265 µM,1.16
same,relative viability,[2]; first compound 0.04 µM,0.304
same,relative viability,[2]; first compound 0.1265 µM,0.391
same,relative viability,[2]; first compound 0.4 µM,0.339
same,relative viability,[2]; first compound 1.265 µM,0.302
same,relative viability,[3]; first compound 0.04 µM,1.02
same,relative viability,[3]; first compound 0.1265 µM,1.09
same,relative viability,[3]; first compound 0.4 µM,0.963
same,relative viability,[3]; first compound 1.265 µM,0.829
same,relative viability,[4]; first compound 0.04 µM,1.07
same,relative viability,[4]; first compound 0.1265 µM,0.939
same,relative viability,[4]; first compound 0.4 µM,0.933
same,relative viability,[4]; first compound 1.265 µM,0.968
same,relative viability,[5]; first compound 0.04 µM,0.96
same,relative viability,[5]; first compound 0.1265 µM,0.936
same,relative viability,[5]; first compound 0.4 µM,0.822
same,relative viability,[5]; first compound 1.265 µM,0.619
same,relative viability,[6]; first compound 0.04 µM,0.26
same,relative viability,[6]; first compound 0.1265 µM,0.324
same,relative viability,[6]; first compound 0.4 µM,0.262
same,relative viability,[6]; first compound 1.265 µM,0.28
same,relative viability,[7]; first compound 0.04 µM,0.455
same,relative viability,[7]; first compound 0.1265 µM,0.633
same,relative viability,[7]; first compound 0.4 µM,0.515
same,relative viability,[7]; first compound 1.265 µM,0.458
same,relative viability,[8]; first compound 0.04 µM,1.1
same,relative viability,[8]; first compound 0.1265 µM,1.02
same,relative viability,[8]; first compound 0.4 µM,0.979
same,relative viability,[8]; first compound 1.265 µM,1.03
same,relative viability,[9]; first compound 0.04 µM,0.712
same,relative viability,[9]; first compound 0.1265 µM,1.26
same,relative viability,[9]; first compound 0.4 µM,0.639
same,relative viability,[9]; first compound 1.265 µM,0.561
same,relative viability,[10]; first compound 0.04 µM,0.8
same,relative viability,[10]; first compound 0.1265 µM,0.848
same,relative viability,[10]; first compound 0.4 µM,0.832
same,relative viability,[10]; first compound 1.265 µM,0.825
same,relative viability,[11]; first compound 0.04 µM,0.856
same,relative viability,[11]; first compound 0.1265 µM,0.867
same,relative viability,[11]; first compound 0.4 µM,0.826
same,relative viability,[11]; first compound 1.265 µM,0.472
same,relative viability,[12]; first compound 0.04 µM,1.02
same,relative viability,[12]; first compound 0.1265 µM,1.11
same,relative viability,[12]; first compound 0.4 µM,1.02
same,relative viability,[12]; first compound 1.265 µM,0.967
same,relative viability,[13]; first compound 0.04 µM,0.897
same,relative viability,[13]; first compound 0.1265 µM,1.03
same,relative viability,[13]; first compound 0.4 µM,0.801
same,relative viability,[13]; first compound 1.265 µM,0.782
same,relative viability,[14]; first compound 0.04 µM,0.443
same,relative viability,[14]; first compound 0.1265 µM,0.495
same,relative viability,[14]; first compound 0.4 µM,0.464
same,relative viability,[14]; first compound 1.265 µM,0.412
same,relative viability,[15]; first compound 0.04 µM,0.96
same,relative viability,[15]; first compound 0.1265 µM,0.933
same,relative viability,[15]; first compound 0.4 µM,0.9
same,relative viability,[15]; first compound 1.265 µM,0.881
same,relative viability,[16]; first compound 0.04 µM,1.02
same,relative viability,[16]; first compound 0.1265 µM,1.01
same,relative viability,[16]; first compound 0.4 µM,0.974
same,relative viability,[16]; first compound 1.265 µM,0.857
same,relative viability,[17]; first compound 0.04 µM,1.01
same,relative viability,[17]; first compound 0.1265 µM,0.858
same,relative viability,[17]; first compound 0.4 µM,0.847
same,relative viability,[17]; first compound 1.265 µM,0.604
same,relative viability,[18]; first compound 0.04 µM,1.05
same,relative viability,[18]; first compound 0.1265 µM,1.03
same,relative viability,[18]; first compound 0.4 µM,0.972
same,relative viability,[18]; first compound 1.265 µM,0.743
same,relative viability,[19]; first compound 0.04 µM,0.77
same,relative viability,[19]; first compound 0.1265 µM,0.942
same,relative viability,[19]; first compound 0.4 µM,0.953
same,relative viability,[19]; first compound 1.265 µM,0.847
same,relative viability,[20]; first compound 0.04 µM,0.589
same,relative viability,[20]; first compound 0.1265 µM,0.618
same,relative viability,[20]; first compound 0.4 µM,0.727
same,relative viability,[20]; first compound 1.265 µM,0.55
